# From ChEMBL document CHEMBL4004838, “Design and synthesis of novel phenyl -1, 4-beta-carboline-hybrid molecules as potential anticancer agents” (Eur J Med Chem, 2017)
# What was measured:
# Assay type in all cases: functional
# [1] = tested on: RPMI-8226; experiment: Growth inhibition of human RPMI8226 cells incubated for 48 hrs by sulforhodamine B assay; settings: RPMI-8226, 48 h
# [2] = tested on: SR; experiment: Growth inhibition of human SR cells incubated for 48 hrs by sulforhodamine B assay
# [3] = tested on: HT-29; experiment: Growth inhibition of human HT-29 cells incubated for 48 hrs by sulforhodamine B assay; settings: HT-29, 48 h
# [4] = tested on: SF-295; experiment: Growth inhibition of human SF295 cells incubated for 48 hrs by sulforhodamine B assay; settings: SF-295, 48 h
# [5] = tested on: IGROV-1; experiment: Growth inhibition of human IGROV1 cells incubated for 48 hrs by sulforhodamine B assay; settings: IGROV-1, 48 h
# [6] = tested on: CAKI-1; experiment: Growth inhibition of human Caki1 cells incubated for 48 hrs by sulforhodamine B assay; settings: CAKI-1, 48 h
# [7] = tested on: PC-3; experiment: Growth inhibition of human PC3 cells incubated for 48 hrs by sulforhodamine B assay; settings: PC-3, 48 h
# [8] = tested on: K562; experiment: Growth inhibition of human K562 cells assessed as cell growth at 0.01 uM incubated for 48 hrs by sulforhodamine B assay relative to control; settings: K562, 48 h, read-out: Activity
# [9] = tested on: SW-620; experiment: Growth inhibition of human SW620 cells assessed as cell growth at 0.01 uM incubated for 48 hrs by sulforhodamine B assay relative to control; settings: SW-620, 48 h, read-out: Activity
# [10] = tested on: SK-MEL-5; experiment: Growth inhibition of human SK-MEL-5 cells assessed as cell growth at 0.01 uM incubated for 48 hrs by sulforhodamine B assay relative to control; settings: SK-MEL-5, 48 h, read-out: Activity
# [11] = tested on: 786-0; experiment: Growth inhibition of human 786-0 cells assessed as cell growth at 0.01 uM incubated for 48 hrs by sulforhodamine B assay relative to control; settings: 786-0, 48 h, read-out: Activity
# [12] = tested on: BT-549; experiment: Growth inhibition of human BT549 cells assessed as cell growth at 0.01 uM incubated for 48 hrs by sulforhodamine B assay relative to control; settings: BT-549, 48 h, read-out: Activity
# [13] = tested on: A549; experiment: Growth inhibition of human A549/ATCC cells assessed as cell growth at 0.1 uM incubated for 48 hrs by sulforhodamine B assay relative to control; settings: A549, 48 h, read-out: Activity
# [14] = tested on: NCI-H23; experiment: Growth inhibition of human NCI-H23 cells assessed as cell growth at 0.1 uM incubated for 48 hrs by sulforhodamine B assay relative to control; settings: NCI-H23, 48 h, read-out: Activity
# [15] = tested on: SF-539; experiment: Growth inhibition of human SF539 cells assessed as cell growth at 0.1 uM incubated for 48 hrs by sulforhodamine B assay relative to control; settings: SF-539, 48 h, read-out: Activity
# [16] = tested on: SK-MEL-2; experiment: Growth inhibition of human SK-MEL-2 cells assessed as cell growth at 0.1 uM incubated for 48 hrs by sulforhodamine B assay relative to control; settings: SK-MEL-2, 48 h, read-out: Activity
# [17] = tested on: UACC-257; experiment: Growth inhibition of human UACC257 cells assessed as cell growth at 0.1 uM incubated for 48 hrs by sulforhodamine B assay relative to control; settings: UACC-257, 48 h, read-out: Activity
# [18] = tested on: OVCAR-4; experiment: Growth inhibition of human OVCAR4 cells assessed as cell growth at 0.1 uM incubated for 48 hrs by sulforhodamine B assay relative to control; settings: OVCAR-4, 48 h, read-out: Activity
# [19] = tested on: T47D; experiment: Growth inhibition of human T47D cells assessed as cell growth at 0.1 uM incubated for 48 hrs by sulforhodamine B assay relative to control; settings: read-out: Activity
# [20] = tested on: CCRF-CEM; experiment: Growth inhibition of human CCRF-CEM cells assessed as cell growth at 1 uM incubated for 48 hrs by sulforhodamine B assay relative to control; settings: read-out: Activity
# [21] = tested on: COLO 205; experiment: Growth inhibition of human COLO205 cells assessed as cell growth at 1 uM incubated for 48 hrs by sulforhodamine B assay relative to control; settings: COLO 205, 48 h, read-out: Activity
# [22] = tested on: KM12; experiment: Growth inhibition of human KM12 cells assessed as cell growth at 1 uM incubated for 48 hrs by sulforhodamine B assay relative to control; settings: KM12, 48 h, read-out: Activity
# [23] = tested on: M14; experiment: Growth inhibition of human M14 cells assessed as cell growth at 1 uM incubated for 48 hrs by sulforhodamine B assay relative to control; settings: M14, 48 h, read-out: Activity
# [24] = tested on: TK-10; experiment: Growth inhibition of human TK10 cells assessed as cell growth at 1 uM incubated for 48 hrs by sulforhodamine B assay relative to control; settings: TK-10, 48 h, read-out: Activity
# [25] = tested on: PC-3; experiment: Growth inhibition of human PC3 cells assessed as cell growth at 1 uM incubated for 48 hrs by sulforhodamine B assay relative to control; settings: PC-3, 48 h, read-out: Activity
# [26] = tested on: HCT-116; experiment: Growth inhibition of human HCT116 cells assessed as cell growth at 100 uM incubated for 48 hrs by sulforhodamine B assay relative to control; settings: HCT-116, 48 h, read-out: Activity
# [27] = tested on: SK-MEL-2; experiment: Growth inhibition of human SK-MEL-2 cells assessed as cell growth at 100 uM incubated for 48 hrs by sulforhodamine B assay relative to control; settings: SK-MEL-2, 48 h, read-out: Activity
# [28] = tested on: 786-0; experiment: Growth inhibition of human 786-0 cells assessed as cell growth at 100 uM incubated for 48 hrs by sulforhodamine B assay relative to control; settings: 786-0, 48 h, read-out: Activity
# [29] = tested on: MCF7; experiment: Growth inhibition of human MCF7 cells assessed as cell growth at 100 uM incubated for 48 hrs by sulforhodamine B assay relative to control; settings: MCF7, 48 h, read-out: Activity
# [30] = tested on: T47D; experiment: Growth inhibition of human T47D cells assessed as cell growth at 100 uM incubated for 48 hrs by sulforhodamine B assay relative to control; settings: read-out: Activity
# [31] = read-out: LC50 (the source's name)
# [32] = read-out: pLC50 (the source's name) (converted)
smiles,measurement,setting,value
c1ccc2c3c([nH]c2c1)C(c1ccc(C2NCCc4c2[nH]c2ccccc42)cc1)NCC3 (racemic),CC50,[1]; [31],1230 nM
same,GI50,[1]; read-out: pGI50 (converted),339 nM
same,CC50,[1]; [32],12300 nM
same,TGI,[1]; read-out: pTGI (converted),1100 nM
same,GI50,[2]; read-out: GI50,2470 nM
same,CC50,[2]; [31],4510 nM
same,TGI,[2]; read-out: TGI,5560 nM
same,GI50,[2]; read-out: pGI50 (converted),245 nM
same,CC50,[2]; [32],4470 nM
same,TGI,[2]; read-out: pTGI (converted),550 nM
same,GI50,[3]; read-out: GI50,2800 nM
same,CC50,[3]; [31],3920 nM
same,TGI,[3]; read-out: TGI,7350 nM
same,GI50,[3]; read-out: pGI50 (converted),282 nM
same,CC50,[3]; [32],3890 nM
same,TGI,[3]; read-out: pTGI (converted),741 nM
same,GI50,[4]; read-out: GI50,1620 nM
same,TGI,[4]; read-out: TGI,3330 nM
same,GI50,[4]; read-out: pGI50 (converted),1620 nM
same,TGI,[4]; read-out: pTGI (converted),3310 nM
same,GI50,[5]; read-out: GI50,1340 nM
same,CC50,[5]; [31],5990 nM
same,TGI,[5]; read-out: TGI,2850 nM
same,GI50,[5]; read-out: pGI50 (converted),1350 nM
same,CC50,[5]; [32],6030 nM
same,TGI,[5]; read-out: pTGI (converted),2820 nM
same,GI50,[6]; read-out: GI50,1660 nM
same,CC50,[6]; [31],9820 nM
same,TGI,[6]; read-out: TGI,4030 nM
same,GI50,[6]; read-out: pGI50 (converted),1660 nM
same,CC50,[6]; [32],9770 nM
same,TGI,[6]; read-out: pTGI (converted),4070 nM
same,GI50,[7]; read-out: GI50,1270 nM
same,CC50,[7]; [31],5690 nM
same,TGI,[7]; read-out: TGI,2690 nM
same,GI50,[7]; read-out: pGI50 (converted),1260 nM
same,CC50,[7]; [32],5750 nM
same,TGI,[7]; read-out: pTGI (converted),2690 nM
same,growth at 0.01 µM,[8],113%
same,growth at 0.01 µM,[9],101%
same,growth at 0.01 µM,[10],99%
same,growth at 0.01 µM,[11],96%
same,growth at 0.01 µM,[12],87%
same,growth at 0.1 µM,[13],95%
same,growth at 0.1 µM,[14],88%
same,growth at 0.1 µM,[15],95%
same,growth at 0.1 µM,[16],94%
same,growth at 0.1 µM,[17],104%
same,growth at 0.1 µM,[18],91%
same,growth at 0.1 µM,[19],86%
same,growth at 1 µM,[20],21%
same,growth at 1 µM,[21],48%
same,growth at 1 µM,[22],54%
same,growth at 1 µM,[23],21%
same,growth at 1 µM,[24],97%
same,growth at 1 µM,[25],66%
same,growth at 100 µM,[26],92%
same,growth at 100 µM,[27],93%
same,growth at 100 µM,[28],-85%
same,growth at 100 µM,[29],-74%
same,growth at 100 µM,[30],-72%
